ChEMBL document CHEMBL2177025, “Chemical proteomics-based analysis of off-target binding profiles for rosiglitazone and pioglitazone: clues for assessing potential for cardiotoxicity” (J Med Chem, 2012)
The source made the active and inactive calls.

How the values were obtained:
[1] = target: Malate dehydrogenase, cytoplasmic (Mus musculus) (UniProt P14152); assay: Binding affinity to mouse cytoplasmic malate dehydrogenase by chromatographic analysis
[2] = target: L-lactate dehydrogenase A chain (Rattus norvegicus) (UniProt P04642); assay: Binding affinity to L-lactate dehydrogenase A chain in Sprague-Dawley rat heart homogenate after 15 mins by chromatographic analysis; type: tissue-based
[3] = target: Very long-chain specific acyl-CoA dehydrogenase, mitochondrial (Rattus norvegicus) (UniProt P45953); assay: Binding affinity to mitochondrial very long-chain specific acyl-CoA dehydrogenase in Sprague-Dawley rat heart homogenate after 15 mins by chromatographic analysis; type: tissue-based
[4] = target: Hydroxyacyl-coenzyme A dehydrogenase, mitochondrial (Rattus norvegicus) (UniProt Q9WVK7); assay: Binding affinity to mitochondrial short-chain L-3-hydroxyacyl-coenzyme A dehydrogenase in Sprague-Dawley rat heart homogenate after 15 mins by chromatographic analysis; type: tissue-based
[5] = target: Glyceraldehyde-3-phosphate dehydrogenase (Rattus norvegicus) (UniProt P04797); assay: Binding affinity to glyceraldehyde 3-phosphate dehydrogenase in Sprague-Dawley rat heart homogenate after 15 mins by chromatographic analysis; type: tissue-based
[6] = target: 2-oxoglutarate dehydrogenase complex component E1 (Mus musculus) (UniProt Q60597); assay: Binding affinity to mouse mitochondrial 2-oxoglutarate dehydrogenase E1 component by chromatographic analysis
[7] = target: T1, Long-chain specific acyl-CoA dehydrogenase, mitochondrial (Rattus norvegicus) (UniProt P15650); assay: Binding affinity to mitochondrial long-chain specific acyl-CoA dehydrogenase in Sprague-Dawley rat heart homogenate after 15 mins by chromatographic analysis relative to rosiglitazone; type: tissue-based
T1 sequence (whole entry): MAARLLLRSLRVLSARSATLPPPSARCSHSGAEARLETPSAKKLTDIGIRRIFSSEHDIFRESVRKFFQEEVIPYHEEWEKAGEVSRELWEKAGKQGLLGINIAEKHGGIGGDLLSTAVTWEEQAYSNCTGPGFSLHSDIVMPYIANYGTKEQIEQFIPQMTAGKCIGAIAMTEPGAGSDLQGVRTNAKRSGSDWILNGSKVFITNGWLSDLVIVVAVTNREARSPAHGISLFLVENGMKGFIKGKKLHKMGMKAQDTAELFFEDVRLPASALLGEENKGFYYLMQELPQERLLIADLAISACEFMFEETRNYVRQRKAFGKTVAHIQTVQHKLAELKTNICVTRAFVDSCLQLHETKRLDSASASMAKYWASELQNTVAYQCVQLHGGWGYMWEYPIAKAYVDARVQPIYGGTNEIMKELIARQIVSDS

[8] = target: Pyruvate dehydrogenase E1 component subunit alpha, somatic form, mitochondrial (Rattus norvegicus) (UniProt P26284); assay: Binding affinity to mitochondrial pyruvate dehydrogenase E1 component subunit alpha in Sprague-Dawley rat heart homogenate after 15 mins by chromatographic analysis; type: tissue-based
[9] = target: Dihydrolipoyllysine-residue succinyltransferase component of 2-oxoglutarate dehydrogenase complex, mitochondrial (Mus musculus) (UniProt Q9D2G2); assay: Binding affinity to mouse mitochondrial dihydrolipoyllysine-residue succinyltransferase component of 2-oxoglutarate dehydrogenase complex by chromatographic analysis
[10] = target: Isocitrate dehydrogenase [NADP], mitochondrial (Mus musculus) (UniProt P54071); assay: Binding affinity to mouse mitochondrial isocitrate dehydrogenase by chromatographic analysis
[11] = target: Medium-chain specific acyl-CoA dehydrogenase, mitochondrial (Rattus norvegicus) (UniProt P08503); assay: Binding affinity to mitochondrial medium-chain specific acyl-CoA dehydrogenase in Sprague-Dawley rat heart homogenate after 15 mins by chromatographic analysis; type: tissue-based
[12] = target: Malate dehydrogenase, mitochondrial (Rattus norvegicus) (UniProt P04636); assay: Binding affinity to mitochondrial malate dehydrogenase in Sprague-Dawley rat heart homogenate after 15 mins by chromatographic analysis; type: tissue-based
[13] = target: Short-chain specific acyl-CoA dehydrogenase, mitochondrial (Rattus norvegicus) (UniProt P15651); assay: Binding affinity to mitochondrial short-chain specific acyl-CoA dehydrogenase in Sprague-Dawley rat heart homogenate after 15 mins by chromatographic analysis; type: tissue-based
[14] = target: Glutamate dehydrogenase 1, mitochondrial (Rattus norvegicus) (UniProt P10860); assay: Binding affinity to mitochondrial glutamate dehydrogenase 1 in Sprague-Dawley rat heart homogenate after 15 mins by chromatographic analysis; type: tissue-based
[15] = target: L-lactate dehydrogenase B chain (Rattus norvegicus) (UniProt P42123); assay: Binding affinity to L-lactate dehydrogenase B chain in Sprague-Dawley rat heart homogenate after 15 mins by chromatographic analysis relative to rosiglitazone; type: tissue-based
[16] = target: T2, Dihydrolipoyl dehydrogenase, mitochondrial (Mus musculus) (UniProt O08749); assay: Binding affinity to mouse mitochondrial dihydrolipoyl dehydrogenase by chromatographic analysis relative to rosiglitazone
T2 sequence (whole entry): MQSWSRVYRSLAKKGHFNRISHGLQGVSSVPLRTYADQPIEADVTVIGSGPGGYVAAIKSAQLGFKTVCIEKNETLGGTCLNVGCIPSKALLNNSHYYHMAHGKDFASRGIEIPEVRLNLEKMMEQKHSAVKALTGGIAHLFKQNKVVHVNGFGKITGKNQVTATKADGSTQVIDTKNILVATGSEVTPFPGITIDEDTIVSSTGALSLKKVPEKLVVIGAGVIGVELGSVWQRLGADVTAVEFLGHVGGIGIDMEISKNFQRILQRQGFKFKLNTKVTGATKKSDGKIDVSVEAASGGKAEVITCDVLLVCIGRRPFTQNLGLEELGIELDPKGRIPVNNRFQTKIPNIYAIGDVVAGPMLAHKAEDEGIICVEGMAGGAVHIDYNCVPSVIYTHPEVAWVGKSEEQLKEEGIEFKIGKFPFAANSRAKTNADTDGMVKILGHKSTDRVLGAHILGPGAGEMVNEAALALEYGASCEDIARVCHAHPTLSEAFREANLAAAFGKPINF

Measured: Activity

Sequence of 2-oxoglutarate dehydrogenase complex component E1 (Mus musculus) (Q60597 whole entry, one chain of several): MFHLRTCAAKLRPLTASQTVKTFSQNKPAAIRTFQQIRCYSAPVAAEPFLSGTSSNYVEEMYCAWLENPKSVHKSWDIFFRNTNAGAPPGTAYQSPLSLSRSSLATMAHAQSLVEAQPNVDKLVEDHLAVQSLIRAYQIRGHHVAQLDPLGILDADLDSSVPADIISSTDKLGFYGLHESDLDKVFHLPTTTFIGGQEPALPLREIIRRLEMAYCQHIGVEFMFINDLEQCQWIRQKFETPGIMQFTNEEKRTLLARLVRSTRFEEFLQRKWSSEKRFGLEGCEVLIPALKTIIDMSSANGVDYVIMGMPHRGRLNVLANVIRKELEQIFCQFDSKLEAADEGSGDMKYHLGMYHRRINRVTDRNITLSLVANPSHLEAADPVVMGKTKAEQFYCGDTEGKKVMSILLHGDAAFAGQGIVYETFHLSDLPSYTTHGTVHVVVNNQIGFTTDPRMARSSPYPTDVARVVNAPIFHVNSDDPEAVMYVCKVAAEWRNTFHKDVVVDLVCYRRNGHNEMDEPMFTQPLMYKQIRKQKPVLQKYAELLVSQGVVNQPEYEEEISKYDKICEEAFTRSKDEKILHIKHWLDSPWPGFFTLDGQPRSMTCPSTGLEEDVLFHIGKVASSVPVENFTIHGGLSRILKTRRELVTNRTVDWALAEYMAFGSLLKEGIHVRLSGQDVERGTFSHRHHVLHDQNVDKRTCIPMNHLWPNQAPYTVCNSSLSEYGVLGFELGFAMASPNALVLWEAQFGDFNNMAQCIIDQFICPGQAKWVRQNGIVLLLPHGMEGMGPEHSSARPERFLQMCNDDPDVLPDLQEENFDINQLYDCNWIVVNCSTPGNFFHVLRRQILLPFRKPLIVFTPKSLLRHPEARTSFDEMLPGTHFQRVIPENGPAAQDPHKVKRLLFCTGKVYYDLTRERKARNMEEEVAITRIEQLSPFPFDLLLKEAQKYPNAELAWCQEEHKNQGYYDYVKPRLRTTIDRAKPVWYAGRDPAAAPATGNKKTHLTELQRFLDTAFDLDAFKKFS
Sequence of Medium-chain specific acyl-CoA dehydrogenase, mitochondrial (Rattus norvegicus) (P08503 whole entry): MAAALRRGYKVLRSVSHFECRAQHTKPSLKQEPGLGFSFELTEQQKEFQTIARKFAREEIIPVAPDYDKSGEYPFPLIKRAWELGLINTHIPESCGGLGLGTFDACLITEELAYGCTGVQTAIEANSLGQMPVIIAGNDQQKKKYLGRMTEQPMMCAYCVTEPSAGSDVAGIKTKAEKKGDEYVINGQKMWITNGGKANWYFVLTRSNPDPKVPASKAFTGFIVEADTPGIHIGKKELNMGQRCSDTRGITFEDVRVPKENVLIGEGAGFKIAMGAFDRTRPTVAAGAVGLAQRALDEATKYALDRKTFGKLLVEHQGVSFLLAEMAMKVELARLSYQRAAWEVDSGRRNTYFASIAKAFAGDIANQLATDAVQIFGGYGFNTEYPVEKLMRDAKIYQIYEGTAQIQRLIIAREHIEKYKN
Sequence of Very long-chain specific acyl-CoA dehydrogenase, mitochondrial (Rattus norvegicus) (P45953 whole entry): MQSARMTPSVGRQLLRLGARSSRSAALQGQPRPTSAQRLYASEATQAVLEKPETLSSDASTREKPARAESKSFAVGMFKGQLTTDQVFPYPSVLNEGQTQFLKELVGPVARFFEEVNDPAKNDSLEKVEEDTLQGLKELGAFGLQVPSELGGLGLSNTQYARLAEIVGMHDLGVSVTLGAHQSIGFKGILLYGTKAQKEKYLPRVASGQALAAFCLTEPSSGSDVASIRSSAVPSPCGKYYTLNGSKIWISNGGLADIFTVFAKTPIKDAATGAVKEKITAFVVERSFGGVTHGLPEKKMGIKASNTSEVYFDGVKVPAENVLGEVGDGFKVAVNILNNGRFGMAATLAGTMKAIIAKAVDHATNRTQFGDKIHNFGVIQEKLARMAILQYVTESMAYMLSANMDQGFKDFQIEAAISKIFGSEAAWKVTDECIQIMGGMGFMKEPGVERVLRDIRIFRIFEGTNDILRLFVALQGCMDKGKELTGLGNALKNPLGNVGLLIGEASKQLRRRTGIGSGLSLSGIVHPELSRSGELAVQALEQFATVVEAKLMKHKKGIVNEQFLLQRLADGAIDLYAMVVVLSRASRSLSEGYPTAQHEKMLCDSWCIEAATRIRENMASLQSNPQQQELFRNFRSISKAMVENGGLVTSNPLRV
Sequence of Glutamate dehydrogenase 1, mitochondrial (Rattus norvegicus) (P10860 whole entry): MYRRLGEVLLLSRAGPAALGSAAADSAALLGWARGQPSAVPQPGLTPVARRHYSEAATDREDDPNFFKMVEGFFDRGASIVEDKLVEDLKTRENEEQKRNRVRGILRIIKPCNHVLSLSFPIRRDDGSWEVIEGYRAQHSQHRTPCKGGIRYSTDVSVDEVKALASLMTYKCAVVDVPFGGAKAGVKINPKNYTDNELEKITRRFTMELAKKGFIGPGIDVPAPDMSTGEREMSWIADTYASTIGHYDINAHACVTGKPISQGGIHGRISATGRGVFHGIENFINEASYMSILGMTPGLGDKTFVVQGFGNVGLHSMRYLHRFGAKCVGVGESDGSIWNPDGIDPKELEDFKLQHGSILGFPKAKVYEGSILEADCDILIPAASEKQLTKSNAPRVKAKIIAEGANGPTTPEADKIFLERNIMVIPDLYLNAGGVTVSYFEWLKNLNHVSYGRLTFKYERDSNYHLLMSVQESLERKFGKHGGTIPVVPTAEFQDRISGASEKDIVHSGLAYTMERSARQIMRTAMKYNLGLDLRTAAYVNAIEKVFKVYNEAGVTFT
Sequence of Pyruvate dehydrogenase E1 component subunit alpha, somatic form, mitochondrial (Rattus norvegicus) (P26284 whole entry): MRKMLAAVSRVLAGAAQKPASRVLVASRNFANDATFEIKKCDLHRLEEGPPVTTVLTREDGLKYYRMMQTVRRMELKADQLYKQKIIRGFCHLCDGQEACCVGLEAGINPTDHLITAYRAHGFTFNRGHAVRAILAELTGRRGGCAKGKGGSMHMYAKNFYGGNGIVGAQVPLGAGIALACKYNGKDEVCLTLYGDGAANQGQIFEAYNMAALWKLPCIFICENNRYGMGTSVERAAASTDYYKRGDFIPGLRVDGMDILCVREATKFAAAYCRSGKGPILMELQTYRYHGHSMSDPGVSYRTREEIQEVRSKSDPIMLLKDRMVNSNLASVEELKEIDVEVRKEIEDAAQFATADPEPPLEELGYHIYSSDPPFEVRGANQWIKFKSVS
Sequence of L-lactate dehydrogenase B chain (Rattus norvegicus) (P42123 whole entry): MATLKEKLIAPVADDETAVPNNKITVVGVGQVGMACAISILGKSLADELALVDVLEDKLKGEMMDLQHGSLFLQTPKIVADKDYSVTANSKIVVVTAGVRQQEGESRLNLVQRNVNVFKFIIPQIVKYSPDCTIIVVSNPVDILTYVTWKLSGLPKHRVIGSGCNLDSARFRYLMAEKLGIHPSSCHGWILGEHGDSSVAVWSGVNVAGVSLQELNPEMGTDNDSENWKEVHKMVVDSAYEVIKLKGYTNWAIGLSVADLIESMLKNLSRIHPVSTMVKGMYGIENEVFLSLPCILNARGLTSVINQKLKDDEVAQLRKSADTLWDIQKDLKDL
Sequence of Malate dehydrogenase, cytoplasmic (Mus musculus) (P14152 whole entry): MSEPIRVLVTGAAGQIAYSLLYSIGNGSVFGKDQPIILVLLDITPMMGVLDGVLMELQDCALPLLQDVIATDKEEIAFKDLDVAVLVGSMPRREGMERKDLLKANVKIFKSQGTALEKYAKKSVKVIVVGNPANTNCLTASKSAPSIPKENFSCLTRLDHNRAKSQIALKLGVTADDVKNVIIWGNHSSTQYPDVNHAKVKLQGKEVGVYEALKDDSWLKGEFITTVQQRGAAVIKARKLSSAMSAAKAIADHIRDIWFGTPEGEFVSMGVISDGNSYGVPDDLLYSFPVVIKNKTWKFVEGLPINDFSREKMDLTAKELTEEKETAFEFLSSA
Sequence of Isocitrate dehydrogenase [NADP], mitochondrial (Mus musculus) (P54071 whole entry): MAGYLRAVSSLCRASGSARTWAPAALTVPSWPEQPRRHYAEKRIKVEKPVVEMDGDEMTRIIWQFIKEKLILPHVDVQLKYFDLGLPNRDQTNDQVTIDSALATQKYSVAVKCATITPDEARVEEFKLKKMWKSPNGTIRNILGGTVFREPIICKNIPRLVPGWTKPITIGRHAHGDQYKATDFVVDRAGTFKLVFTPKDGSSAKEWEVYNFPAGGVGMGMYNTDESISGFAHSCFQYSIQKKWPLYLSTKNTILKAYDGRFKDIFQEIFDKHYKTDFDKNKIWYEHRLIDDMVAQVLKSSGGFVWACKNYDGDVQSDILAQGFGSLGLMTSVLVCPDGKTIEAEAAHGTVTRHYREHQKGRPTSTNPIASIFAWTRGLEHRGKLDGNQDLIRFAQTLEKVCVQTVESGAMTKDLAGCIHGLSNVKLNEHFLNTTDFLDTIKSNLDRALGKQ
Sequence of Hydroxyacyl-coenzyme A dehydrogenase, mitochondrial (Rattus norvegicus) (Q9WVK7 whole entry): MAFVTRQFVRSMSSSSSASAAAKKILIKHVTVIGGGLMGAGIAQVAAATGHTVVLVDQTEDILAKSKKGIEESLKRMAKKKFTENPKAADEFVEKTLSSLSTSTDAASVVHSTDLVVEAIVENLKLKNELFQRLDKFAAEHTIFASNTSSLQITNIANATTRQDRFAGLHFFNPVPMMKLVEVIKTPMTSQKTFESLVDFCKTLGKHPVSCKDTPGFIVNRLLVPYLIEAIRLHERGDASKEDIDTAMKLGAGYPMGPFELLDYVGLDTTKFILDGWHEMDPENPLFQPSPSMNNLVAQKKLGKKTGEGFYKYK
Sequence of Glyceraldehyde-3-phosphate dehydrogenase (Rattus norvegicus) (P04797 whole entry): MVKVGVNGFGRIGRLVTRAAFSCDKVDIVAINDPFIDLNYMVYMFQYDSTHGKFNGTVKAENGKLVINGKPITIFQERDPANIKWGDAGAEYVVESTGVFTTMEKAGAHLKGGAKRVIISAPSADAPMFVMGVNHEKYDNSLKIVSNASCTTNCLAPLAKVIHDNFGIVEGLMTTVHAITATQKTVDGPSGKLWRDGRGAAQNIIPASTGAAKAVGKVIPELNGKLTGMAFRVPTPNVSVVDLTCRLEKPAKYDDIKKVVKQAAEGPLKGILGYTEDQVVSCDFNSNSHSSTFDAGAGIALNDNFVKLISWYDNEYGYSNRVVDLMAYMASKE

O=C1NC(=O)C(Cc2ccc(O)cc2)S1 (stereo unspecified)
active: [1] | [2] | [3] | [4] | [5] | [6] | [7] | [8] | [9] | [10] | [11] | [12] | [13] | [14] | [15] | [16]
